What all share (assay type): cell-based
One assay deals with K. pneumoniae MP-546. Kind of assay: Broth dilution MIC determination (CLSI), K. pneumoniae MP-546. The conditions noted are these: Klebsiella pneumoniae, MP546; strain MP-546, broth dilution. (Dilution methods test growth across graded concentrations, often in twofold steps.)
In the next assay the test system is K. pneumoniae MP-648. As to the kind of experiment: Broth dilution MIC determination (CLSI), K. pneumoniae MP-648. The conditions noted are these: Klebsiella pneumoniae, MP648; strain MP-648, broth dilution.
In the next assay the test system is S. aureus MP-12. As to the kind of experiment: Broth dilution MIC determination (CLSI), S. aureus MP-12. The conditions noted are these: Staphylococcus aureus, MP12; strain MP-12, broth dilution.
Another assay relates to E. coli MP-4. As to the kind of experiment: Broth dilution MIC determination (CLSI), E. coli MP-4. The conditions noted are these: Escherichia coli, MP4; strain MP-4, broth dilution; read-out: MIC E. coli MP-4.
In a further assay the test system is A. baumannii MP-15. Kind of assay: Broth dilution MIC determination (CLSI), A. baumannii MP-15. The conditions noted are these: Acinetobacter baumannii, MP15; strain MP-15, broth dilution; read-out: MIC A. baumanii MP-15.
The subject of the next assay is P. aeruginosa MP-3. Kind of assay: Broth dilution MIC determination (CLSI), P. aeruginosa MP-3. The conditions noted are these: Pseudomonas aeruginosa, MP3; strain MP-3, broth dilution.

Results on twelve compounds are retold here after US20220177508A1, “C10-Cyclic Substituted 13-Membered Macrolides and Uses Thereof” (Zikani Therapeutics, Inc., priority 2018, published 2022).

Usually MIC stands for the least concentration at which growth counts as inhibited.

Each structure is given as a SMILES string. In brackets after ≈: the same amount, converted by molar mass.

With `CO[C@]1(C)C[C@@H](C)CN(C)[C@H](C2CN(C(=O)CCN(C)CC3CC3)C2)COC(=O)C(C)(C)C(=O)[C@H](C)[C@H]1O[C@@H]1O[C@H](C)C[C@H](N(C)C)[C@H]1O` [Compound 144, (3R,6R,8R,9R,10R)-3-(1-(3-((cyclopropylmethyl)(methyl)amino)propanoyl)azetidin-3-yl)-9-(((2S,3R,4S,6R)-4-(dimethylamino)-3-hydroxy-6-methyltetrahydro-2H-pyran-2-yl)oxy)-8-methoxy-4,6,8,10,12,12-hexamethyl-1-oxa-4-azacyclotridecane-11,13-dione], the MIC against K. pneumoniae MP-546 is 4 to 32 µg/mL (≈ 5.76 to 46 µM); in the assay with K. pneumoniae MP-648 it was more than 32 µg/mL; in the assay with S. aureus MP-12, more than 32 µg/mL; in the assay with E. coli MP-4, less than 4 µg/mL; with A. baumannii MP-15, more than 32 µg/mL; against P. aeruginosa MP-3 it was more than 32 µg/mL.

With `CO[C@]1(C)C[C@@H](C)CN(C)[C@H](C2CN(C(=O)[C@@H]3CCN(CC4CC4)C3)C2)COC(=O)C(C)(C)C(=O)[C@H](C)[C@H]1O[C@@H]1O[C@H](C)C[C@H](N(C)C)[C@H]1O` [Compound 145, (3R,6R,8R,9R,10R)-3-(1-((R)-1-(cyclopropylmethyl)pyrrolidine-3-carbonyl)azetidin-3-yl)-9-(((2S,3R,4S,6R)-4-(dimethylamino)-3-hydroxy-6-methyltetrahydro-2H-pyran-2-yl)oxy)-8-methoxy-4,6,8,10,12,12-hexamethyl-1-oxa-4-azacyclotridecane-11,13-dione], the MIC in the assay on K. pneumoniae MP-546 was 4 to 32 µg/mL (≈ 5.66 to 45.3 µM); in the assay on K. pneumoniae MP-648 it was 4 to 32 µg/mL (≈ 5.66 to 45.3 µM); against S. aureus MP-12, more than 32 µg/mL; in the assay on E. coli MP-4, less than 4 µg/mL; in the assay on A. baumannii MP-15 it was more than 32 µg/mL; with P. aeruginosa MP-3, more than 32 µg/mL.

As to `CO[C@]1(C)C[C@@H](C)CN(C)[C@H](C2CN(CC3CC3)C2)[C@@H](C)OC(=O)C(C)(C)C(=O)[C@H](C)[C@H]1O[C@@H]1O[C@H](C)C[C@H](N(C)C)[C@H]1O` [Compound 146, (2R,3R,6R,8R,9R,10R)-3-(1-(cyclopropylmethyl)azetidin-3-yl)-9-(((2S,3R,4S,6R)-4-(dimethylamino)-3-hydroxy-6-methyltetrahydro-2H-pyran-2-yl)oxy)-8-methoxy-2,4,6,8,10,12,12-heptamethyl-1-oxa-4-azacyclotridecane-11,13-dione], the MIC against K. pneumoniae MP-546 was more than 32 µg/mL; against K. pneumoniae MP-648, more than 32 µg/mL; with S. aureus MP-12, more than 32 µg/mL; in the assay with E. coli MP-4 it was 4 to 32 µg/mL (≈ 6.41 to 51.3 µM); in the assay with A. baumannii MP-15, more than 32 µg/mL; in the assay on P. aeruginosa MP-3, more than 32 µg/mL.

Take `CO[C@]1(C)C[C@@H](C)CN(C)[C@H](C2CCN(C(C)C)CC2)COC(=O)C(C)(C)C(=O)[C@H](C)[C@H]1O[C@@H]1O[C@H](C)C[C@H](N(C)C)[C@H]1O` [Compound 151]: the MIC in the assay with K. pneumoniae MP-546 was less than 4 µg/mL; in the assay with K. pneumoniae MP-648 it was less than 4 µg/mL; in the assay with S. aureus MP-12, more than 32 µg/mL; with E. coli MP-4 it was less than 4 µg/mL; with A. baumannii MP-15, more than 32 µg/mL; against P. aeruginosa MP-3, more than 32 µg/mL.

Turning to `CO[C@]1(C)C[C@@H](C)CN(C)[C@H](C2CN(C(=O)CCCN(C)CC3CCC3)C2)COC(=O)C(C)(C)C(=O)[C@H](C)[C@H]1O[C@@H]1O[C@H](C)C[C@H](N(C)C)[C@H]1O` [Compound 156, (3R,6R,8R,9R,10R)-3-(1-(4-((cyclobutylmethyl)(methyl)amino)butanoyl)azetidin-3-yl)-9-(((2S,3R,4S,6R)-4-(dimethylamino)-3-hydroxy-6-methyltetrahydro-2H-pyran-2-yl)oxy)-8-methoxy-4,6,8,10,12,12-hexamethyl-1-oxa-4-azacyclotridecane-11,13-dione], the minimal inhibitory concentration (MIC) is 4 to 32 µg/mL (≈ 5.53 to 44.3 µM) against K. pneumoniae MP-546; 4 to 32 µg/mL (≈ 5.53 to 44.3 µM) with K. pneumoniae MP-648; more than 32 µg/mL against S. aureus MP-12; less than 4 µg/mL in the assay on E. coli MP-4; more than 32 µg/mL in the assay with A. baumannii MP-15; more than 32 µg/mL in the assay on P. aeruginosa MP-3.

As to `CO[C@]1(C)C[C@@H](C)CN(C)[C@](C)(C2CCN(C(C)C)CC2)COC(=O)C(C)(C)C(=O)[C@H](C)[C@H]1O[C@@H]1O[C@H](C)C[C@H](N(C)C)[C@H]1O` [Compound 158, (3R,6R,8R,9R,10R)-9-(((2S,3R,4S,6R)-4-(dimethylamino)-3-hydroxy-6-methyltetrahydro-2H-pyran-2-yl)oxy)-3-(1-isopropylpiperidin-4-yl)-8-methoxy-3,4,6,8,10,12,12-heptamethyl-1-oxa-4-azacyclotridecane-11,13-dione], the MIC against K. pneumoniae MP-546 was less than 4 µg/mL; against K. pneumoniae MP-648, less than 4 µg/mL; against S. aureus MP-12, 4 to 32 µg/mL (≈ 6.25 to 50 µM); in the assay with E. coli MP-4, less than 4 µg/mL; in the assay on A. baumannii MP-15, more than 32 µg/mL; in the assay with P. aeruginosa MP-3 it was more than 32 µg/mL.

Turning to `CO[C@]1(C)C[C@@H](C)CN(C)[C@H](C2CN(CC3CCCO3)C2)COC(=O)C(C)(C)C(=O)[C@H](C)[C@H]1O[C@@H]1O[C@H](C)C[C@H](N(C)C)[C@H]1O` (stereo partly drawn) [Compound 164, (3R,6R,8R,9R,10R)-9-(((2S,3R,4S,6R)-4-(dimethylamino)-3-hydroxy-6-methyltetrahydro-2H-pyran-2-yl)oxy)-8-methoxy-4,6,8,10,12,12-hexamethyl-3-(1-((tetrahydrofuran-2-yl)methyl)azetidin-3-yl)-1-oxa-4-azacyclotridecane-11,13-dione], the MIC is less than 4 µg/mL against K. pneumoniae MP-546; 4 to 32 µg/mL (≈ 6.25 to 50 µM) in the assay with K. pneumoniae MP-648; 4 to 32 µg/mL (≈ 6.25 to 50 µM) against S. aureus MP-12; less than 4 µg/mL with E. coli MP-4; more than 32 µg/mL in the assay on A. baumannii MP-15; more than 32 µg/mL with P. aeruginosa MP-3.

Turning to `CCN(C)[C@H]1C[C@@H]([C@@H]2COC(=O)C(C)(C)C(=O)[C@H](C)[C@@H](O[C@@H]3O[C@H](C)C[C@H](N(C)C)[C@H]3O)[C@](C)(OC)C[C@@H](C)CN2C)C1` [Compound 165, (3R,6R,8R,9R,10R)-9-(((2S,3R,4S,6R)-4-(dimethylamino)-3-hydroxy-6-methyltetrahydro-2H-pyran-2-yl)oxy)-3-((1s,3S)-3-(ethyl(methyl)amino)cyclobutyl)-8-methoxy-4,6,8,10,12,12-hexamethyl-1-oxa-4-azacyclotridecane-11,13-dione], the MIC in the assay with K. pneumoniae MP-546 was 4 to 32 µg/mL (≈ 6.54 to 52.3 µM); in the assay with K. pneumoniae MP-648, 4 to 32 µg/mL (≈ 6.54 to 52.3 µM); in the assay on S. aureus MP-12 it was more than 32 µg/mL; in the assay on E. coli MP-4, less than 4 µg/mL; in the assay on A. baumannii MP-15, more than 32 µg/mL; in the assay on P. aeruginosa MP-3 it was more than 32 µg/mL.

For `CO[C@]1(C)C[C@@H](C)CN(C)[C@H](C2CN(C(=O)[C@H]3CCN(C)C3)C2)COC(=O)C(C)(C)C(=O)[C@H](C)[C@H]1O[C@@H]1O[C@H](C)C[C@H](N(C)C)[C@H]1O` [Compound 168, (3R,6R,8R,9R,10R)-9-(((2S,3R,4S,6R)-4-(dimethylamino)-3-hydroxy-6-methyltetrahydro-2H-pyran-2-yl)oxy)-8-methoxy-4,6,8,10,12,12-hexamethyl-3-(1-((S)-1-methylpyrrolidine-3-carbonyl)azetidin-3-yl)-1-oxa-4-azacyclotridecane-11,13-dione], the MIC is 4 to 32 µg/mL (≈ 6 to 48 µM) with K. pneumoniae MP-546; more than 32 µg/mL against K. pneumoniae MP-648; 4 to 32 µg/mL (≈ 6 to 48 µM) against S. aureus MP-12; less than 4 µg/mL in the assay on E. coli MP-4; more than 32 µg/mL in the assay on A. baumannii MP-15; more than 32 µg/mL with P. aeruginosa MP-3.

On to `CO[C@]1(C)C[C@@H](C)CN(C)[C@H](C2CN(Cc3ccncc3)C2)COC(=O)C(C)(C)C(=O)[C@H](C)[C@H]1O[C@@H]1O[C@H](C)C[C@H](N(C)C)[C@H]1O` [Compound 176, (3R,6R,8R,9R,10R)-9-(((2S,3R,4S,6R)-4-(dimethylamino)-3-hydroxy-6-methyltetrahydro-2H-pyran-2-yl)oxy)-8-methoxy-4,6,8,10,12,12-hexamethyl-3-(1-(pyridin-4-ylmethyl)azetidin-3-yl)-1-oxa-4-azacyclotridecane-11,13-dione], for which the MIC is 4 to 32 µg/mL (≈ 6.18 to 49.5 µM) with K. pneumoniae MP-546; more than 32 µg/mL against K. pneumoniae MP-648; 4 to 32 µg/mL (≈ 6.18 to 49.5 µM) against S. aureus MP-12; 4 to 32 µg/mL (≈ 6.18 to 49.5 µM) in the assay with E. coli MP-4; more than 32 µg/mL with A. baumannii MP-15; more than 32 µg/mL in the assay on P. aeruginosa MP-3.

`CO[C@]1(C)C[C@@H](C)CN(C)[C@H](C2CN(Cc3cncnc3)C2)COC(=O)C(C)(C)C(=O)[C@H](C)[C@H]1O[C@@H]1O[C@H](C)C[C@H](N(C)C)[C@H]1O` [Compound 177, (3R,6R,8R,9R,10R)-9-(((2S,3R,4S,6R)-4-(dimethylamino)-3-hydroxy-6-methyltetrahydro-2H-pyran-2-yl)oxy)-8-methoxy-4,6,8,10,12,12-hexamethyl-3-(1-(pyrimidin-5-ylmethyl)azetidin-3-yl)-1-oxa-4-azacyclotridecane-11,13-dione]: the MIC against K. pneumoniae MP-546 is 4 to 32 µg/mL (≈ 6.17 to 49.4 µM); in the assay on K. pneumoniae MP-648 it was more than 32 µg/mL; against S. aureus MP-12 it was 4 to 32 µg/mL (≈ 6.17 to 49.4 µM); in the assay with E. coli MP-4, 4 to 32 µg/mL (≈ 6.17 to 49.4 µM); in the assay with A. baumannii MP-15, more than 32 µg/mL; in the assay on P. aeruginosa MP-3 it was more than 32 µg/mL.

On to `CO[C@]1(C)C[C@@H](C)CN(C)[C@H](C2CN(C(=O)CCCN(C)CC(C)C)C2)COC(=O)C(C)(C)C(=O)[C@H](C)[C@H]1O[C@@H]1O[C@H](C)C[C@H](N(C)C)[C@H]1O` [Compound 178, (3R,6R,8R,9R,10R)-9-(((2S,3R,4S,6R)-4-(dimethylamino)-3-hydroxy-6-methyltetrahydro-2H-pyran-2-yl)oxy)-3-(1-(4-(isobutyl(methyl)amino)butanoyl)azetidin-3-yl)-8-methoxy-4,6,8,10,12,12-hexamethyl-1-oxa-4-azacyclotridecane-11,13-dione], for which the MIC is 4 to 32 µg/mL (≈ 5.63 to 45 µM) in the assay with K. pneumoniae MP-546; 4 to 32 µg/mL (≈ 5.63 to 45 µM) in the assay with K. pneumoniae MP-648; more than 32 µg/mL with S. aureus MP-12; less than 4 µg/mL with E. coli MP-4; more than 32 µg/mL in the assay with A. baumannii MP-15; more than 32 µg/mL in the assay on P. aeruginosa MP-3.
